Reference: ChEMBL document CHEMBL1201862, “PubChem BioAssay data set” (2004)
Calls of active or inactive are those of the source.

Legend:
HEK293 [1] = experiment: NOD1 signaling inhibitors, primary screen, cell-based, luminescence, uHTS (AID 1578); format: functional; details: Homo sapiens
HEK293 [2] = experiment: cells; format: functional, cell-based; details: Homo sapiens
HEK293 [3] = experiment: cells; format: functional, cell-based; details: Homo sapiens; remark: listed apart in the source
[4] = molecular target: T1, Nucleotide-binding oligomerization domain-containing protein 2 (Homo sapiens, UniProt Q9HC29); experiment: NOD2 signaling inhibitors, cell-based, luminescence, uHTS, HEK293 (AID 1566); format: functional
HEK293 [5] = experiment: NOD2 signaling inhibitors in MDP-stimulated cells, cell-based, uHTS, luminescence (AID 2001); format: functional; details: Homo sapiens
[6] = inhibitors of intracellular T. cruzi replication, confirmation, NIH3T3 host cells, beta-gal luminescence (AID 2044); format: functional, cell-based;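 note: intracellular parasites grown in NIH/3T3 mouse fibroblasts as host cells; luminescent beta-galactosidase reporter signal from transgenic T. cruzi replicating inside host cells; inhibitors lower the luminescence signal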
HEK293 [7] = experiment: cells; format: functional, cell-based; details: Homo sapiens; remark: listed apart in the source
[8] = cytotoxicity toward NIH3T3 fibroblasts, dose response, counter-screen, cell-based, ATP luminescence, mouse fibroblasts (AID 2010); format: functional;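 note: cells exposed to compound for about 90 hours before reading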
Tumor necrosis factor = Tumor necrosis factor (Homo sapiens, UniProt P01375); experiment: TNFa-triggered NF-kB activation inhibitors, SAR follow-up, cell-based, revised (AID 2337); format: functional
[9] = molecular target: T2, Nucleotide-binding oligomerization domain-containing protein 1 (Homo sapiens, UniProt Q9Y239); experiment: NOD1 signaling inhibitors, SAR follow-up, revised (AID 2333); format: functional
T2 sequence (Q9Y239 whole entry): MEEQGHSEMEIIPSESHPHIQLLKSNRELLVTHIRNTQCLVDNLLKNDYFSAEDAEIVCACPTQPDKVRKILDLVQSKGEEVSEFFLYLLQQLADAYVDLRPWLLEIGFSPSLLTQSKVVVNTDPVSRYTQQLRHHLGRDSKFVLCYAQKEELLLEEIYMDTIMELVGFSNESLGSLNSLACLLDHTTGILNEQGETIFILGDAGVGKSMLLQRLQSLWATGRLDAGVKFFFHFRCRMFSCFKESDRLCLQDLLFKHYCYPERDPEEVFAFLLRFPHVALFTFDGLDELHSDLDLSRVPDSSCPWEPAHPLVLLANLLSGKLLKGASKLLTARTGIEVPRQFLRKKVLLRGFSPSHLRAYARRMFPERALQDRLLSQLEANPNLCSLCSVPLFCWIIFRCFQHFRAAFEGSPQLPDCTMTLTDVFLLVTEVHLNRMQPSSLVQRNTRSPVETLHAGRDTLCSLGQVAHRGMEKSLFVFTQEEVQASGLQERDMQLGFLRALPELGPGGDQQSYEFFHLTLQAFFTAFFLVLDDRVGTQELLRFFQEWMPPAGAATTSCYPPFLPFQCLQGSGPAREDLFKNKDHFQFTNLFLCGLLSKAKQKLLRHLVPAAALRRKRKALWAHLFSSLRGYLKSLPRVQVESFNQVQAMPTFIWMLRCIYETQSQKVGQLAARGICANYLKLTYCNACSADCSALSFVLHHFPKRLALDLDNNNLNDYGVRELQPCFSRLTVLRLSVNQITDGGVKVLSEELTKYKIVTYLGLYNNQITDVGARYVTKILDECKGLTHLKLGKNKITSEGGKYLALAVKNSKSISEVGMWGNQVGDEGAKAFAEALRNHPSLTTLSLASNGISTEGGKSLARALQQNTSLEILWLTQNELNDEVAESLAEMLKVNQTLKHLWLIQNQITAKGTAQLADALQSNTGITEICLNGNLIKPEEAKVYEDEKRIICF

[10] = molecular target: T1, Nucleotide-binding oligomerization domain-containing protein 2; experiment: PubChem AID 2334; format: functional
Vero = experiment: cells; format: functional, cell-based; details: Chlorocebus sabaeus
HEK293 [11] = experiment: cells; details: Homo sapiens
Beta-galactosidase = Beta-galactosidase (Escherichia coli, UniProt Q8VNN2); experiment: beta-galactosidase enzyme inhibitors and activators, dose response, artefact control for CCR6 antagonist project, biochemical, E. coli enzyme, set 3 (AID 504712); format: functional
Hexokinase HKDC1 = molecular target: T3, Hexokinase HKDC1 (Homo sapiens, UniProt Q2TB90); experiment: HKDC1 hexokinase inhibitors, dose response, biochemical, W721R variant (AID 504729); format: functional
T3 sequence (Q2TB90 whole entry): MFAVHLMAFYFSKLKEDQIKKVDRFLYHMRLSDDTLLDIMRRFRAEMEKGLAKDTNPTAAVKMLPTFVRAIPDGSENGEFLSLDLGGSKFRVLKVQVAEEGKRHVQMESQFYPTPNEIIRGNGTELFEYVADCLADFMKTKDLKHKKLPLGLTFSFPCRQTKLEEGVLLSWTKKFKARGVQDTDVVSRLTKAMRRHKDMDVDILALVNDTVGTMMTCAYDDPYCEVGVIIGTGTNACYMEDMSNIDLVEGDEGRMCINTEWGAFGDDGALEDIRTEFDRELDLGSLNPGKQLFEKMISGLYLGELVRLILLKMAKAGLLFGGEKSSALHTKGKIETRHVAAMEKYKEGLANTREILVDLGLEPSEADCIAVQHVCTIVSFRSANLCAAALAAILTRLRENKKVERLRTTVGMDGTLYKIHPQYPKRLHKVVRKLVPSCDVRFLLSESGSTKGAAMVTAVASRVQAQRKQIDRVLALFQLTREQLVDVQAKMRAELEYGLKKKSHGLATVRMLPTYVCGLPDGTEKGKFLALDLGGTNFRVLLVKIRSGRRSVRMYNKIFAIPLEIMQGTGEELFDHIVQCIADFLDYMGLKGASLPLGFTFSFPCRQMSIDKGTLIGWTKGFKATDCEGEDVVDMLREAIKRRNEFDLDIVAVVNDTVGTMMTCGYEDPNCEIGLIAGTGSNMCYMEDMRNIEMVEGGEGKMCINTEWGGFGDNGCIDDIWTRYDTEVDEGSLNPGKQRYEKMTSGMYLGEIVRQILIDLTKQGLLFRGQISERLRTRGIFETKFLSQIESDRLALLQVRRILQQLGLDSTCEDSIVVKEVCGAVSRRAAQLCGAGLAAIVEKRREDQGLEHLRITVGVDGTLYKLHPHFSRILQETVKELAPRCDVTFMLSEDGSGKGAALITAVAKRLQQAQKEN

Bcl-2-related protein A1 = molecular target: T4, Bcl-2-related protein A1 (Mus musculus, UniProt Q07440); format: functional;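 note: confirmatory dose–response counterscreen on Bfl-1, used to check hits from a UBC13 polyubiquitin inhibitor campaign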
T4 sequence (Q07440 whole entry): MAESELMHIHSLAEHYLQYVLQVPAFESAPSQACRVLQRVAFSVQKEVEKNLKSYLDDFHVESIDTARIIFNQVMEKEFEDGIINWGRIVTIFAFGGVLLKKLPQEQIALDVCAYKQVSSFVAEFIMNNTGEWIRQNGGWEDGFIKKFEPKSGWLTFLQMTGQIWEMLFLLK

[12] = molecular target: T5, Ubiquitin-conjugating enzyme E2 N (Homo sapiens, UniProt P61088); format: functional
T5 sequence (P61088 whole entry): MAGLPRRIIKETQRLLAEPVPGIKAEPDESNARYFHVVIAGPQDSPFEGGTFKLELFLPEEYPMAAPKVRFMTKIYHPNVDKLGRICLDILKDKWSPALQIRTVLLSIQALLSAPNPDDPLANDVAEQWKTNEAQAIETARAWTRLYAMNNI

[13] = molecular target: Neurotensin receptor type 1 (Homo sapiens, UniProt P30989); format: functional;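 note: Image-based confirmatory dose-response assay measuring agonist activity at NTR1; NTR1-expressing U2OS osteosarcoma cells imaged for beta-arrestin GFP spot formation; agonist potency where compounds increase beta-arrestin recruitment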
[14] = molecular target: T5, Ubiquitin-conjugating enzyme E2 N; format: functional; remark: listed apart in the source
[15] = A549 cell cytotoxicity, dose response, cytotoxicity control, plate reader, cherry-pick, antagonist series (AID 743412); format: functional, cell-based
[16] = HepG2 cell cytotoxicity, dose response, cytotoxicity control, plate reader, cherry-pick, antagonist series (AID 743416); format: functional, cell-based
[17] = LGR2 antagonists, dose response, cell-based, HEK293, CRE-luciferase reporter, cherry pick, set 2 (AID 743343); format: functional;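 note: transfected cells were stimulated with diluted bursicon conditioned medium after compound addition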
[18] = MC4R antagonists, dose response, counter-screen for LGR2 antagonist project, cell-based, plate reader, cherry pick (AID 743444); format: functional;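 note: transfected HEK 293 cells stimulated with alpha-MSH peptide; potency of inhibitors of the alpha-MSH evoked signal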
[19] = HEK293 cell cytotoxicity, dose response, cytotoxicity control, plate reader, cherry-picked samples (AID 743446); format: functional, cell-based
[20] = cytotoxicity in HEK-293T cells, dose response, cytotoxicity control for BCR NF-kB inhibitor project, luminescence, B-cell screen hits (AID 489021); format: functional, cell-based;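 note: HEK-293T cells carrying an NF-kB luciferase reporter; cells exposed to compound for about 14 hours before viability readout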
[21] = inhibitors of firefly luciferase expression or activity, dose response, H4 neuroglioma cells, luminescence (AID 1990); format: functional, cell-based
[22] = Luminescence Cell-Based Dose Response HTS to Identify Inhibitors of 5'UTR Stem-Loop Driven Prion Protein mRNA Translation in H4 Neuroglioblastoma Cells. [Related pubchem assays: 1827 (Project Summary), 1813 (Primary HTS)]; format: functional
[23] = inhibitors of SNCA 5'UTR-driven reporter translation, confirmation, H4 neuroglioma cells, luminescence (AID 1988); format: functional, cell-based
Bcl-2-like protein 10 = molecular target: T6, Bcl-2-like protein 10 (Homo sapiens, UniProt Q9HD36); experiment: displacers of TR3 peptide from Bcl-B, primary screen, selectivity assay for Bfl-1 inhibitor project, biochemical, fluorescence polarization, FITC-TR3 peptide (AID 748);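 note: fluorescence polarization from a fluorescein-labelled TR3 peptide binding purified Bcl-B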
T6 sequence (Q9HD36 whole entry): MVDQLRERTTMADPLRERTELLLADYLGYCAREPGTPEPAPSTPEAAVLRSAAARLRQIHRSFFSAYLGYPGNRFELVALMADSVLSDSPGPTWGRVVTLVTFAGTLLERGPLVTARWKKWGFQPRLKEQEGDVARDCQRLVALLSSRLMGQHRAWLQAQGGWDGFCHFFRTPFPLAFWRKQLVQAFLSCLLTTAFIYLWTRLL

[24] = molecular target: Beta-2 adrenergic receptor (Homo sapiens, UniProt P07550); experiment: beta2AR agonists driving receptor internalization, dose response, cell-based, FAP fluorogen, flow cytometry, cherry pick 1 (AID 588763); format: functional
[25] = Luminescence Cell-Based Dose Retest to Confirm Inhibitors of Cancer Stem Cells. [Related pubchem assays (depositor defined):AID2717, AID2721]; format: functional; details: Homo sapiens
[26] = Shn3 3'UTR reporter inhibitors, dose response, cell-based, Clone20 osteoblasts, firefly luciferase, cherry-picked (AID 624132); format: functional;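 note: firefly luciferase luminescence from reporter carrying the Shn3 3'UTR in osteoblasts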
[27] = HepG2 cell cytotoxicity, dose response, cytotoxicity control for Shn3 inhibitor project, CellTiter-Glo, cherry-picked (AID 624134); format: functional, cell-based
[28] = control 3'UTR Renilla luciferase suppression, dose response, counter-screen for Shn3 inhibitor project, cell-based, Clone20-Shn3RL, cherry-picked (AID 624133); format: functional
[29] = THP-1 cell cytotoxicity, dose response, cytotoxicity control for non-replicating M. tuberculosis project (AID 489025); format: functional
[30] = HepG2 cell cytotoxicity, dose response, cytotoxicity control for non-replicating M. tuberculosis project (AID 489018); format: functional; details: Mycobacterium tuberculosis
[31] = Vero E6 cell cytotoxicity, dose response, cytotoxicity control for non-replicating M. tuberculosis project, secondary assay (AID 492998); format: functional, VeroE6; details: Vero C1008
cells = format: functional

T1 sequence (Q9HC29 whole entry, the tested form may be a part): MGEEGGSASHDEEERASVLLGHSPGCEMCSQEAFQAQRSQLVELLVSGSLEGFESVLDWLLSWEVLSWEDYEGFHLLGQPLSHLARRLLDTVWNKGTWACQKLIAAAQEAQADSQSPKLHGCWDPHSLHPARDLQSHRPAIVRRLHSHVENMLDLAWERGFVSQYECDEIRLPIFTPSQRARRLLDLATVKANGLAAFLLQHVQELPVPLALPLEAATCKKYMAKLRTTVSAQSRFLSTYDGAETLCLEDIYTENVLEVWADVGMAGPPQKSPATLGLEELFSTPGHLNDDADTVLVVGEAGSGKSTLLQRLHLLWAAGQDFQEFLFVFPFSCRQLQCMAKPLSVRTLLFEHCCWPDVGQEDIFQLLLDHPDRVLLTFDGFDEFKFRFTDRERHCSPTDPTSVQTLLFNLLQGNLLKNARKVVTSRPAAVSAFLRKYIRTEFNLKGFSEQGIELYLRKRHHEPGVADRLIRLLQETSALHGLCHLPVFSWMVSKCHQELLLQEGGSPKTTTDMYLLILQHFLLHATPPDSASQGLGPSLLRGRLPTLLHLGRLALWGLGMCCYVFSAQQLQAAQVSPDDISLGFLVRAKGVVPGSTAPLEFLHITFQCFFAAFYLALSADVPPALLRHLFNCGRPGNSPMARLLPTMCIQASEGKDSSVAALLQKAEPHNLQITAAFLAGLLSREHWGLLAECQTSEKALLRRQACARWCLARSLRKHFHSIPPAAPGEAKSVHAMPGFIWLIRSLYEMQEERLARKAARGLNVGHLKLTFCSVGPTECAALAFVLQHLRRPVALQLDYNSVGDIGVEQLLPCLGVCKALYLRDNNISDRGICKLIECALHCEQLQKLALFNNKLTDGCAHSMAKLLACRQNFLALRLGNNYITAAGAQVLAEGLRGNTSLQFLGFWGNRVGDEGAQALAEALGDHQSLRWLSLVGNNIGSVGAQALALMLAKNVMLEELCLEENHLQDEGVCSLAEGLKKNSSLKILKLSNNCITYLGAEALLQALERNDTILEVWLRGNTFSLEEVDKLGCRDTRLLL
Chain of Beta-2 adrenergic receptor (P07550 whole entry): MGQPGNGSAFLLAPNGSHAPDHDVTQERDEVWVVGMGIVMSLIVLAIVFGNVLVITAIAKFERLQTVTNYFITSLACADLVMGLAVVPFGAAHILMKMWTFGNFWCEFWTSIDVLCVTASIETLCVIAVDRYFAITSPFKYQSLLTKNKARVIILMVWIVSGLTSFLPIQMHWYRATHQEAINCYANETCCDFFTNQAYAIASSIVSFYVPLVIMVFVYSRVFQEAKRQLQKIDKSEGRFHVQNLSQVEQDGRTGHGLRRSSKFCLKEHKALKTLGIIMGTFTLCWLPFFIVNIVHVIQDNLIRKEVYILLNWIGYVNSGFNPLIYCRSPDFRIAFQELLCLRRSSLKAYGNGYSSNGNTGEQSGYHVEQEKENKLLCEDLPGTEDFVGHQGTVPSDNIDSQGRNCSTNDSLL
Chain of Tumor necrosis factor (P01375 whole entry, the tested form may be a part): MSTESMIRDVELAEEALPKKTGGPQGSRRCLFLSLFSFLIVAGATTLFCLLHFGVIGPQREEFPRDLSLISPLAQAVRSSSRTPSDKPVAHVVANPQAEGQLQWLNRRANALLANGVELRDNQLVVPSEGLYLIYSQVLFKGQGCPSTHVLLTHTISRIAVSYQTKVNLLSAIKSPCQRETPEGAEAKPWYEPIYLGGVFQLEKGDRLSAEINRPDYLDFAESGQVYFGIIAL
Chain of Beta-galactosidase (Q8VNN2 whole entry): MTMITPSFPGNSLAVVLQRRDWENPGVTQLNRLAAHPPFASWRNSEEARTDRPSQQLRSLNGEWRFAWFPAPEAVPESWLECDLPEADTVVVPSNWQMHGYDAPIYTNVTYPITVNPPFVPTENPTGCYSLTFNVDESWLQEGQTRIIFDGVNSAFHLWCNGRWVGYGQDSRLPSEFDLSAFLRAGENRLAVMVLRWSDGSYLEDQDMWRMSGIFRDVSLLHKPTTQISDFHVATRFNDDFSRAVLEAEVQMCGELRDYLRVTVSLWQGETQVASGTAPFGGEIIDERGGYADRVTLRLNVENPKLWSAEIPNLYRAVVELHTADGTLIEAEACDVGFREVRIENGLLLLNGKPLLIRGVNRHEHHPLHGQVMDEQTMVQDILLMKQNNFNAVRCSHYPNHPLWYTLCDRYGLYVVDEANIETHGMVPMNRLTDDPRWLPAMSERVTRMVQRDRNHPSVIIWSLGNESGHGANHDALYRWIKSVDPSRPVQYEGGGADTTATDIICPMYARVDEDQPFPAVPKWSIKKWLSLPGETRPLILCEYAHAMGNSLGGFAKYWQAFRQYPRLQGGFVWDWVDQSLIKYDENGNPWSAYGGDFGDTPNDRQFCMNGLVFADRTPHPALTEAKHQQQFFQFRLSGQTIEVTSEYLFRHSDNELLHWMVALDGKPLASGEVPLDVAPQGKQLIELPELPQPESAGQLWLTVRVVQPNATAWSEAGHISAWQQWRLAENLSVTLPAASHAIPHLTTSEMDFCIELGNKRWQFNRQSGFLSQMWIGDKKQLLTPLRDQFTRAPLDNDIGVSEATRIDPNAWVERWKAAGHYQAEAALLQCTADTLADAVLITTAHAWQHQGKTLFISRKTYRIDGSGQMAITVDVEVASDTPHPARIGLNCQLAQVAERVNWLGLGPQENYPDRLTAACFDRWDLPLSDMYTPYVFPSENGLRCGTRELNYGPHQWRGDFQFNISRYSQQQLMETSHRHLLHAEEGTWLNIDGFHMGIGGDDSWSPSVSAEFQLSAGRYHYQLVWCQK
Chain of Neurotensin receptor type 1 (P30989 whole entry): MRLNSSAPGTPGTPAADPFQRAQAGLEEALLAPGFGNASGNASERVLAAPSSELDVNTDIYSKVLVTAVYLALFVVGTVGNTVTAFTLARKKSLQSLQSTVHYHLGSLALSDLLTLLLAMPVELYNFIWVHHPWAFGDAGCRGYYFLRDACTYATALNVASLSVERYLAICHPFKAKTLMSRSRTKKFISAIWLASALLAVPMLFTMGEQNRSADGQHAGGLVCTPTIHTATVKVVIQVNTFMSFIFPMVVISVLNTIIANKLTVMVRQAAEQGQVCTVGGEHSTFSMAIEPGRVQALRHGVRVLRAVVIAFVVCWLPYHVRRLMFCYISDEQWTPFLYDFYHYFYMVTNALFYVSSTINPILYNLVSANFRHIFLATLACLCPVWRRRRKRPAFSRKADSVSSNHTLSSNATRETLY

SMILES: Cc1ccc2c(c1)CCCN2S(=O)(=O)c1cccc(C(=O)Nc2ccccc2C(=O)O)c1
- EC50 (HEK293 [1]): 9.32 µM (active)
- IC50 (HEK293 [2]): > 20 µM (inactive)
- IC50 (HEK293 [3]): > 20 µM (inactive)
- EC50 [4]: 4.45 µM (active)
- IC50 (HEK293 [5]): 15.9 µM (inactive)
- EC50 [6]: 4.95 µM (active)
- IC50 (HEK293 [7]): > 20 µM (inactive)
- EC50 [8]: 4.22 µM (active)
- IC50 (Tumor necrosis factor): 7.52 µM (active)
- IC50 [9]: 9.05 µM (active)
- IC50 [10]: 12.6 µM (active)
- IC50 (Vero): > 25 µM (active)
- IC50 (HEK293 [11]): > 20 µM (inactive)

SMILES: COC(=O)c1ccc(CCc2cc(O)c(Br)cc2O)cc1
- IC50 (Beta-galactosidase): > 66.6 µM (inactive)
- IC50 (Hexokinase HKDC1): 6.54 µM (active)

SMILES: CCOC(=O)/C(=C\c1cccc(O)c1)c1nc(O)c2c(C)c(C)sc2n1
- IC50 (Bcl-2-related protein A1): > 20 µM (inactive)
- IC50 [12]: 16.4 µM (active)
- EC50 [13]: 6.59 µM (active)
- IC50 [14]: > 20 µM (inactive)
- AC50 [15]: 20.3 µM (active)
- AC50 [16]: 13.5 µM (active)
- AC50 [17]: 12.9 µM (active)
- AC50 [18]: 24.5 µM (active)
- AC50 [19]: 22.8 µM (active)

SMILES: COc1ccc(-c2ccc(OC)c([C@H]3[C@H]4C=CC[C@@H](C)[C@@H]4C(=O)N3Cc3ccccc3)c2)cc1
- IC50 [20]: > 80 µM (inactive)

SMILES: CCCCCn1c(=O)c(C(=O)Nc2ccccc2S(N)(=O)=O)c(O)c2ccccc21
- EC50 [21]: > 120 µM (not active)
- EC50 (HEK293 [1]): 6.17 µM (active)
- IC50 (HEK293 [2]): > 20 µM (inactive)
- EC50 [22]: > 120 µM (not active)
- EC50 [23]: 9.08 µM (active)
- IC50 (HEK293 [3]): > 20 µM (inactive)
- EC50 [4]: 5.7 µM (active)
- IC50 (HEK293 [5]): 8.2 µM (active)
- EC50 [6]: 2.07 µM (active)
- IC50 (HEK293 [7]): > 20 µM (inactive)
- EC50 [8]: > 30 µM (not active)
- IC50 (Tumor necrosis factor): 3.44 µM (active)
- IC50 [9]: 5.88 µM (active)
- IC50 [10]: 6.92 µM (active)
- IC50 (HEK293 [11]): > 20 µM (inactive)

SMILES: O=C(CCCCCn1c(=S)[nH]c2ccccc2c1=O)NCc1ccc2c(c1)OCO2
- IC50 (Bcl-2-like protein 10): > 100 µM (inactive)
- EC50 [24]: 0.0077 µM (active)

SMILES: Cn1nnnc1Sc1ncnc2scc(Br)c12
- AC50 [25]: 2.12 µM (active)
- IC50 [20]: > 80 µM (inactive)
- AC50 [26]: 6.51 µM (active)
- AC50 [27]: 39 µM (active)
- AC50 [28]: 12.5 µM (active)

SMILES: COc1cc(CNCCc2c[nH]c3ccccc23)ccc1OCc1ccc(F)cc1
- IC50 (Bcl-2-like protein 10): > 100 µM (inactive)
- CC50 [29]: 12 µM (active)
- AC50 [25]: 5 µM (active)
- CC50 [30]: 8 µM (active)
- CC50 [31]: 11.3 µM (active)
- IC50 (cells): 10.7 µM (active)
- EC50 [24]: 36.7 µM (inactive)
